Assay [1] deals with T1, CDK2/CycE (Homo sapiens, UniProt P24941).
T1 construct: purchased ProQinase GmbH (Freiburg, Germany); host or cells: insect cells (Sf9)
Nature of the assay: CDK2/CycE kinase assay (TR-FRET, 2 mM ATP). It is filed as biochemical. As to conditions: 2 mM ATP (high ATP); median; read-out: CDK2/CyclinE, 2 mM ATP (high ATP), IC50 (median). The method in brief: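 GST-tagged human CDK2 and CycE from Sf9 cells, about 10 ng/ml, pre-incubated 15 min at 22 °C with compound in Tris/HCl pH 8.0 buffer. Reaction with 2 mM ATP and 0.75 µM biotinylated peptide for 25 min at 22 °C. Phospho-RB antibody TR-FRET (665/620 nm ratio) read after 1 h; data normalised to no-inhibitor and no-enzyme controls.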
(In general: In TR-FRET formats the signal depends on donor and acceptor labels being close together.)

Assay [2] relates to BRCA1 mRNA expression in MDA-MB-231 cells. Nature of the assay: qRT-PCR assay: BRCA1 mRNA expression in MDA-MB-231. The class given is cell-based, human. Conditions: Homo sapiens, MDA-MB-231, Inhibition of BRCA1 mRNA expression in MDA-MB-231 cells; median; read-out: RTqPCR-MDA-MB-231, IC50, BRCA1 (median). The method in brief: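 Cells were seeded at 200,000 cells/well, left 24 h, then exposed continuously to test substances for 24 h. Total RNA (600 ng) was reverse-transcribed to cDNA and amplified by qPCR, and transcript levels were normalised to GAPDH housekeeping expression.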

Assay [3] concerns MDA-MB-231, human breast cancer cells. Description: Proliferation assay MDA-MB-231 (crystal violet, 4 days). It is filed as cell-based. As to conditions: Homo sapiens, MDA-MB-231, 96 h, MDA-MB-231 cells, median, read-out: Prolif-MDA MB-231, IC50-[mol/l] (median). In short, it runs like this:
(§1)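 Cells seeded at 4,000/well in medium with 10% FCS; after 24 h, compounds added at 0.01-10 µmol/L (0.1% DMSO) for 4 days. Glutaraldehyde-fixed, crystal violet-stained, absorbance at 595 nm normalized to zero-point plate (0%) and untreated cells (100%); IC50 by 4-parameter fit.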

For assay [4], the system named is CAL-120, human breast adenocarcinoma cells. Description: Proliferation assay CAL-120 (crystal violet, 4 days). The class given is cell-based. As to conditions: Homo sapiens, CAL-120, 96 h, CAL-120 cells, median, read-out: Prolif-CAL-120, IC50-[mol/l] (median). In short, it runs like this: as §1

Drawing on patent publication US20230117034A1, “PYRAZOLOTRIAZINES” (Bayer Aktiengesellschaft, priority 2019, published 2023), this text covers IC50 for 16 molecules.

As for `CN1CCN(c2nc(NCc3nc4c(F)cccc4[nH]3)n3ncc(Cl)c3n2)CC1.O=CO` [Example 362, formic acid 8-chloro-N-[(4-fluoro-1H-benzimidazol-2-yl)methyl]-2-(4-methylpiperazin-1-yl)pyrazolo[1,5-a][1,3,5]triazin-4-amine], the IC50 worked out at 9310 nM in assay [1], 26.4 nM in assay [2], 33.5 nM in assay [3] and 8.15 nM in assay [4].
Take `Brc1cnn2c(NCc3nc4ccccc4[nH]3)nc(N3CC4CCC3CO4)nc12` (stereo not shown) [Example 352, N-[(1H-benzimidazol-2-yl)methyl]-8-bromo-2-(2-oxa-5-azabicyclo[2.2.2]octan-5-yl)pyrazolo[1,5-a][1,3,5]triazin-4-amine]: the IC50 came to 2300 nM in assay [1], 4.93 nM in assay [2], 18.8 nM in assay [3] and 8.05 nM in assay [4].
In the same order, the values of `FC(F)(F)c1cnn2c(NCc3nc4cc(Cl)c(Cl)cc4[nH]3)nc(N3CCOCC3)nc12` [Example 332, N-[(5,6-dichloro-1H-benzimidazol-2-yl)methyl]-2-(morpholin-4-yl)-8-(trifluoromethyl)pyrazolo[1,5-a][1,3,5]triazin-4-amine] are more than 20000 nM, 3.78 nM, 11.8 nM and 10.9 nM.
In the same order, the values of `CN1CCN(c2nc(NCc3nc4cc(F)c(F)cc4[nH]3)n3ncc(Br)c3n2)CC1` [Example 346, 8-bromo-N-[(5,6-difluoro-1H-benzimidazol-2-yl)methyl]-2-(4-methylpiperazin-1-yl)pyrazolo[1,5-a][1,3,5]triazin-4-amine] are more than 20000 nM, 3.02 nM, 4.67 nM and 2.66 nM.
In the same order, the values of `CN(CC(C)(C)O)c1nc(NCc2nc3cc(C(F)(F)F)ccc3[nH]2)n2ncc(C3CC3)c2n1` [Example 323, 1-{[8-cyclopropyl-4-({[5-(trifluoromethyl)-1H-benzimidazol-2-yl]methyl}amino)pyrazolo[1,5-a][1,3,5]triazin-2-yl](methyl)amino}-2-methylpropan-2-ol] are 13500 nM, 16.9 nM, 8.76 nM and 5.4 nM.
With `Fc1cc2nc(CNc3nc(N4CCOCC4)nc4c(C(F)(F)F)cnn34)[nH]c2cc1F` [Example 333, N-[(5,6-difluoro-1H-benzimidazol-2-yl)methyl]-2-(morpholin-4-yl)-8-(trifluoromethyl)pyrazolo[1,5-a][1,3,5]triazin-4-amine], the IC50 is more than 20000 nM in assay [1], 1.8 nM in assay [2], 3.78 nM in assay [3] and 3.1 nM in assay [4].
For `C[C@H]1CN(C)CCN1c1nc(NCc2nc3c(F)cccc3[nH]2)n2ncc(C(F)(F)F)c2n1` [Example 388, 2-[(2S)-2,4-dimethylpiperazin-1-yl]-N-[(4-fluoro-1H-benzimidazol-2-yl)methyl]-8-(trifluoromethyl)pyrazolo[1,5-a][1,3,5]triazin-4-amine] the same measures were more than 20000 nM, 40 nM, 30.2 nM and 22.5 nM.
For `Clc1cc2nc(CNc3nc(N4CC5CCC(C4)N5)nc4c(C5CC5)cnn34)[nH]c2cc1Cl` [Example 324, 8-cyclopropyl-2-(3,8-diazabicyclo[3.2.1]octan-3-yl)-N-[(5,6-dichloro-1H-benzimidazol-2-yl)methyl]pyrazolo[1,5-a][1,3,5]triazin-4-amine] the same measures were 13800 nM, 8.86 nM, 1.56 nM and 1.17 nM.
In the same order, the values of `Cc1cc2nc(CNc3nc(N(C)CC(C)(C)O)nc4c(Br)cnn34)[nH]c2cc1C` [Example 343, 1-[(8-bromo-4-{[(5,6-dimethyl-1H-benzimidazol-2-yl)methyl]amino}pyrazolo[1,5-a][1,3,5]triazin-2-yl)(methyl)amino]-2-methylpropan-2-ol] are 1190 nM, 1.91 nM, 2.84 nM and 1.82 nM.
Regarding `Fc1c(Cl)ccc2[nH]c(CNc3nc(N4CC5CCC(C4)N5)nc4c(C5CC5)cnn34)nc12` [Example 379, N-[(5-chloro-4-fluoro-1H-benzimidazol-2-yl)methyl]-8-cyclopropyl-2-(3,8-diazabicyclo[3.2.1]octan-3-yl)pyrazolo[1,5-a][1,3,5]triazin-4-amine], the IC50 in assay [1] was determined as 14300 nM; in assay [2], 2.36 nM; in assay [3], 2.92 nM; in assay [4] it was 1.71 nM.
For `CN(CC(C)(C)O)c1nc(NCc2nc3cc(F)c(Cl)cc3[nH]2)n2ncc(Br)c2n1` [Example 338, 1-[(8-bromo-4-{[(6-chloro-5-fluoro-1H-benzimidazol-2-yl)methyl]amino}pyrazolo[1,5-a][1,3,5]triazin-2-yl)(methyl)amino]-2-methylpropan-2-ol] the same measures were 6570 nM, 1.3 nM, 3.1 nM and 1.93 nM.
For `Brc1cnn2c(NCc3nc4ccccc4[nH]3)nc(N3CC4CCC(C3)O4)nc12` [Example 351, N-[(1H-benzimidazol-2-yl)methyl]-8-bromo-2-(8-oxa-3-azabicyclo[3.2.1]octan-3-yl)pyrazolo[1,5-a][1,3,5]triazin-4-amine] the same measures were 7390 nM, 61.6 nM, 93.9 nM and 38.4 nM.
In the same order, the values of `Cc1cc2nc(CNc3nc(N4CC5CCC(C4)N5)nc4c(Br)cnn34)[nH]c2cc1C` [Example 353, 8-bromo-2-(3,8-diazabicyclo[3.2.1]octan-3-yl)-N-[(5,6-dimethyl-1H-benzimidazol-2-yl)methyl]pyrazolo[1,5-a][1,3,5]triazin-4-amine] are 2860 nM, 2.39 nM, 1.81 nM and 1.41 nM.
For the molecule `Cc1cc2nc(CNc3nc(N4CCOCC4)nc4c(C5CC5)cnn34)[nH]c2cc1C` [Example 320, 8-cyclopropyl-N-[(5,6-dimethyl-1H-benzimidazol-2-yl)methyl]-2-(morpholin-4-yl)pyrazolo[1,5-a][1,3,5]triazin-4-amine], the IC50 in assay [1] was 4710 nM; in assay [2] it was 3.59 nM; in assay [3], 4.17 nM; in assay [4], 4.24 nM.
In the same order, the values of `Cc1cc2nc(CNc3nc(N(C)CC(C)(C)O)nc4c(C5CC5)cnn34)[nH]c2cc1C` [Example 321, 1-[(8-cyclopropyl-4-{[(5,6-dimethyl-1H-benzimidazol-2-yl)methyl]amino}pyrazolo[1,5-a][1,3,5]triazin-2-yl)(methyl)amino]-2-methylpropan-2-ol] are 1000 nM, 1.3 nM, 2.45 nM and 2.35 nM.
In the same order, the values of `Fc1c(Cl)ccc2[nH]c(CNc3nc(N4CC5CCC(C4)N5)nc4c(Br)cnn34)nc12` [Example 380, 8-bromo-N-[(5-chloro-4-fluoro-1H-benzimidazol-2-yl)methyl]-2-(3,8-diazabicyclo[3.2.1]octan-3-yl)pyrazolo[1,5-a][1,3,5]triazin-4-amine] are 9260 nM, 1 nM, 2.19 nM and 1.72 nM.
